This note sets out measurements from patent US12049450B2, “Pyridyloxy-carboxylate derivative and preparation method therefor, herbicidal composition, and use” (Qingdao Kingagroot Chemical Compound Co., Ltd., priority 2018, dated 2024).

Molecules are shown by their SMILES.

What all share (test): Post-emergence test experiment (greenhouse pot, spray at 2-3 leaf stage)
Common to all, as to type: in vivo
Conditions in all cases: 1000 g/ha; post-emergence spray at 2-3 leaf stage; assessed after 3 weeks; fresh weight inhibition rate

One experiment has as its system Monochoria vaginalis. In short, it runs like this:
(§1)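 Weed seeds sown in soil-filled pots in greenhouse, sprayed at 2-3 leaf stage (2 weeks after sowing) with compound in acetone/tween-80 plus methyl oleate emulsible concentrate (1.5 L/ha) diluted in water. Fresh-weight growth inhibition scored after 3 weeks on 0-5 scale (5: >85%, 0: <5%).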

Another experiment has as its system Digitaria sanguinalis. In short, it runs like this: as §1
For another experiment, the system named is Abutilon theophrasti. The gist of the method: as §1
A further experiment deals with Echinochloa crusgalli. The gist of the method:
as §1

The next experiment concerns Galium spurium. In short, it runs like this: as §1

For the compound `CC(Oc1nc(F)c(Cl)c(N)c1Cl)C(=O)OCc1cccc(Cl)c1Cl` (stereo not shown) [Compound 80], the “Activity level (growth inhibition rate) Monochoria Vaginalis” value with Monochoria vaginalis was 5 (Level 5: the growth inhibition rate is greater than 85%). Besides, the “Activity level (growth inhibition rate) Digitaria sanguinalis” value in the experiment on Digitaria sanguinalis was 5 (Level 5: the growth inhibition rate is greater than 85%). In the experiment with Abutilon theophrasti, the “Activity level (growth inhibition rate) Abutilon theophrasti” value is reported as 5 (Level 5: the growth inhibition rate is greater than 85%). Also, in the experiment on Echinochloa crusgalli, the “Activity level (growth inhibition rate) Echinochloa crusgalli” value is given as 5 (Level 5: the growth inhibition rate is greater than 85%). Further, in the experiment on Galium spurium, the “Activity level (growth inhibition rate) Galium spurium” value is listed as 5 (Level 5: the growth inhibition rate is greater than 85%).
For `CC(Oc1nc(F)c(Cl)c(N)c1Cl)C(=O)SCc1cc(F)cc(Cl)c1` (stereo not shown) [Compound 81], the “Activity level (growth inhibition rate) Monochoria Vaginalis” value in the experiment with Monochoria vaginalis is recorded as 5 (Level 5: the growth inhibition rate is greater than 85%). Moreover, the “Activity level (growth inhibition rate) Digitaria sanguinalis” value in the experiment with Digitaria sanguinalis is recorded as 5 (Level 5: the growth inhibition rate is greater than 85%). Also, the “Activity level (growth inhibition rate) Abutilon theophrasti” value in the experiment on Abutilon theophrasti is recorded as 5 (Level 5: the growth inhibition rate is greater than 85%). Moreover, in the experiment with Echinochloa crusgalli, the “Activity level (growth inhibition rate) Echinochloa crusgalli” value is listed as 5 (Level 5: the growth inhibition rate is greater than 85%). In the experiment with Galium spurium, the “Activity level (growth inhibition rate) Galium spurium” value is 5 (Level 5: the growth inhibition rate is greater than 85%).
`COc1cccc(F)c1CSC(=O)C(C)Oc1nc(F)c(Cl)c(N)c1Cl` (stereo not shown) [Compound 84]: the “Activity level (growth inhibition rate) Monochoria Vaginalis” value in the experiment with Monochoria vaginalis was 5 (Level 5: the growth inhibition rate is greater than 85%). In addition, in the experiment on Digitaria sanguinalis, the “Activity level (growth inhibition rate) Digitaria sanguinalis” value is 5 (Level 5: the growth inhibition rate is greater than 85%). The “Activity level (growth inhibition rate) Abutilon theophrasti” value with Abutilon theophrasti is 5 (Level 5: the growth inhibition rate is greater than 85%). For the same compound, the “Activity level (growth inhibition rate) Echinochloa crusgalli” value with Echinochloa crusgalli is recorded as 5 (Level 5: the growth inhibition rate is greater than 85%). Moreover, the “Activity level (growth inhibition rate) Galium spurium” value with Galium spurium is 5 (Level 5: the growth inhibition rate is greater than 85%).
In the case of `CC(Oc1nc(F)c(Cl)c(N)c1Cl)C(=O)OCc1cc([N+](=O)[O-])ccc1F` (stereo not shown) [Compound 86], the “Activity level (growth inhibition rate) Monochoria Vaginalis” value in the experiment with Monochoria vaginalis is reported as 5 (Level 5: the growth inhibition rate is greater than 85%). Besides, the “Activity level (growth inhibition rate) Digitaria sanguinalis” value in the experiment with Digitaria sanguinalis is recorded as 5 (Level 5: the growth inhibition rate is greater than 85%). In addition, in the experiment with Abutilon theophrasti, the “Activity level (growth inhibition rate) Abutilon theophrasti” value was 5 (Level 5: the growth inhibition rate is greater than 85%). In addition, the “Activity level (growth inhibition rate) Echinochloa crusgalli” value in the experiment with Echinochloa crusgalli is reported as 5 (Level 5: the growth inhibition rate is greater than 85%). In addition, in the experiment with Galium spurium, the “Activity level (growth inhibition rate) Galium spurium” value is listed as 5 (Level 5: the growth inhibition rate is greater than 85%).
In the case of `CC(Oc1nc(F)c(Cl)c(N)c1Cl)C(=O)SCc1cccc(C(=O)O)c1` (stereo not shown) [Compound 87], in the experiment with Monochoria vaginalis, the “Activity level (growth inhibition rate) Monochoria Vaginalis” value is on record as 5 (Level 5: the growth inhibition rate is greater than 85%). The “Activity level (growth inhibition rate) Digitaria sanguinalis” value in the experiment with Digitaria sanguinalis was 5 (Level 5: the growth inhibition rate is greater than 85%). Further, in the experiment with Abutilon theophrasti, the “Activity level (growth inhibition rate) Abutilon theophrasti” value is recorded as 5 (Level 5: the growth inhibition rate is greater than 85%). For the same compound, the “Activity level (growth inhibition rate) Echinochloa crusgalli” value in the experiment on Echinochloa crusgalli is on record as 5 (Level 5: the growth inhibition rate is greater than 85%). Besides, the “Activity level (growth inhibition rate) Galium spurium” value in the experiment with Galium spurium was 5 (Level 5: the growth inhibition rate is greater than 85%).
Consider `CC(Oc1nc(F)c(Cl)c(N)c1Cl)C(=O)OCc1cccc(O)c1` (stereo not shown) [Compound 89], for which the “Activity level (growth inhibition rate) Monochoria Vaginalis” value with Monochoria vaginalis was 5 (Level 5: the growth inhibition rate is greater than 85%). In addition, the “Activity level (growth inhibition rate) Digitaria sanguinalis” value with Digitaria sanguinalis is 5 (Level 5: the growth inhibition rate is greater than 85%). The “Activity level (growth inhibition rate) Abutilon theophrasti” value in the experiment on Abutilon theophrasti is on record as 5 (Level 5: the growth inhibition rate is greater than 85%). In the experiment with Echinochloa crusgalli, the “Activity level (growth inhibition rate) Echinochloa crusgalli” value was 5 (Level 5: the growth inhibition rate is greater than 85%). The “Activity level (growth inhibition rate) Galium spurium” value with Galium spurium is recorded as 5 (Level 5: the growth inhibition rate is greater than 85%).
Consider `CC(Oc1nc(F)c(Cl)c(N)c1Cl)C(=O)OCc1cccc(N)c1` (stereo not shown) [Compound 90], for which the “Activity level (growth inhibition rate) Monochoria Vaginalis” value with Monochoria vaginalis is reported as 5 (Level 5: the growth inhibition rate is greater than 85%). For the same compound, in the experiment with Digitaria sanguinalis, the “Activity level (growth inhibition rate) Digitaria sanguinalis” value is reported as 5 (Level 5: the growth inhibition rate is greater than 85%). In addition, the “Activity level (growth inhibition rate) Abutilon theophrasti” value in the experiment on Abutilon theophrasti is recorded as 5 (Level 5: the growth inhibition rate is greater than 85%). Besides, the “Activity level (growth inhibition rate) Echinochloa crusgalli” value in the experiment with Echinochloa crusgalli is 5 (Level 5: the growth inhibition rate is greater than 85%). The “Activity level (growth inhibition rate) Galium spurium” value in the experiment on Galium spurium is given as 5 (Level 5: the growth inhibition rate is greater than 85%).
Take `CC(Oc1nc(F)c(Cl)c(N)c1Cl)C(=O)OCc1ccc(C#N)cc1` (stereo not shown) [Compound 91]: the “Activity level (growth inhibition rate) Monochoria Vaginalis” value in the experiment with Monochoria vaginalis was 5 (Level 5: the growth inhibition rate is greater than 85%). Besides, the “Activity level (growth inhibition rate) Digitaria sanguinalis” value in the experiment with Digitaria sanguinalis was 5 (Level 5: the growth inhibition rate is greater than 85%). Moreover, the “Activity level (growth inhibition rate) Abutilon theophrasti” value in the experiment on Abutilon theophrasti is recorded as 5 (Level 5: the growth inhibition rate is greater than 85%). The “Activity level (growth inhibition rate) Echinochloa crusgalli” value in the experiment with Echinochloa crusgalli was 5 (Level 5: the growth inhibition rate is greater than 85%). Besides, the “Activity level (growth inhibition rate) Galium spurium” value with Galium spurium is 5 (Level 5: the growth inhibition rate is greater than 85%).
Regarding `CSc1cccc(COC(=O)C(C)Oc2nc(F)c(Cl)c(N)c2Cl)c1` (stereo not shown) [Compound 92], in the experiment on Monochoria vaginalis, the “Activity level (growth inhibition rate) Monochoria Vaginalis” value is reported as 5 (Level 5: the growth inhibition rate is greater than 85%). In addition, in the experiment on Digitaria sanguinalis, the “Activity level (growth inhibition rate) Digitaria sanguinalis” value is listed as 5 (Level 5: the growth inhibition rate is greater than 85%). Besides, the “Activity level (growth inhibition rate) Abutilon theophrasti” value in the experiment on Abutilon theophrasti is 5 (Level 5: the growth inhibition rate is greater than 85%). For the same compound, the “Activity level (growth inhibition rate) Echinochloa crusgalli” value with Echinochloa crusgalli is 5 (Level 5: the growth inhibition rate is greater than 85%). For the same compound, in the experiment with Galium spurium, the “Activity level (growth inhibition rate) Galium spurium” value is 5 (Level 5: the growth inhibition rate is greater than 85%).
In the case of `CC(Oc1nc(F)c(Cl)c(N)c1Cl)C(=O)OCc1ccc(N(C)C)cc1` (stereo not shown) [Compound 93], in the experiment on Monochoria vaginalis, the “Activity level (growth inhibition rate) Monochoria Vaginalis” value is on record as 5 (Level 5: the growth inhibition rate is greater than 85%). In the experiment with Digitaria sanguinalis, the “Activity level (growth inhibition rate) Digitaria sanguinalis” value is on record as 5 (Level 5: the growth inhibition rate is greater than 85%). In the experiment with Abutilon theophrasti, the “Activity level (growth inhibition rate) Abutilon theophrasti” value is reported as 5 (Level 5: the growth inhibition rate is greater than 85%). For the same compound, in the experiment with Echinochloa crusgalli, the “Activity level (growth inhibition rate) Echinochloa crusgalli” value is 5 (Level 5: the growth inhibition rate is greater than 85%). In addition, the “Activity level (growth inhibition rate) Galium spurium” value with Galium spurium is given as 5 (Level 5: the growth inhibition rate is greater than 85%).
On to `CC(Oc1nc(F)c(Cl)c(N)c1Cl)C(=O)SCc1ccccc1N=[N+]=[N-]` (stereo not shown) [Compound 94], for which, in the experiment on Monochoria vaginalis, the “Activity level (growth inhibition rate) Monochoria Vaginalis” value is given as 5 (Level 5: the growth inhibition rate is greater than 85%). Besides, the “Activity level (growth inhibition rate) Digitaria sanguinalis” value in the experiment on Digitaria sanguinalis is 5 (Level 5: the growth inhibition rate is greater than 85%). Also, in the experiment on Abutilon theophrasti, the “Activity level (growth inhibition rate) Abutilon theophrasti” value is 5 (Level 5: the growth inhibition rate is greater than 85%). Also, the “Activity level (growth inhibition rate) Echinochloa crusgalli” value in the experiment with Echinochloa crusgalli is 5 (Level 5: the growth inhibition rate is greater than 85%). The “Activity level (growth inhibition rate) Galium spurium” value in the experiment with Galium spurium is given as 5 (Level 5: the growth inhibition rate is greater than 85%).
